Measured values from patent publication US20030109584A1, “Stabilized pharmaceutically effective composition and pharmaceutical formulation comprising the same” (priority 2000, published 2003).

Experiments:
Type in all cases: physicochemical
[1] = pH value of 1% or 5% aqueous solution of the active substance, after preparing and after 1 week on air
Procedure: Within the scope of this invention the term “which will provide a pH value” means a pH value that is measured in an aqueous solution or dispersion of an active substance or of a mixture of the active substance with the buffering substance or of a stabilized active substance according to this invention or of a pharmaceutical formulation or of a stabilized pharmaceutical formulation of an active substance obtained according to this invention. The concentration of such an aqueous solution or dispersion is 1% or 5%. The measurement procedure is described in Examples 1-11.

[2] = pH of pravastatin sodium crystals kept in normal air, nitrogen or carbon dioxide atmosphere
Procedure: Another observation was that carbon dioxide from the air may irreversibly and reversibly bind to the active substance and can cause a drop of pH. This is illustrated by the following experiment: 5 g of pravastatin sodium were dissolved in 30 ml of methanol, the pH was adjusted to 10 with 3% aqueous solution of NaOH. 400 ml of ethylacetate were added and the crystals of pravastatin sodium were formed. Crystals were filtered and dried and then put into three different atmospheres: normal air, nitrogen atmosphere and carbon dioxide atmosphere. In normal air and in the nitrogen atmosphere the pH remained the same during a period of 24 hours (normal air: pH 9.2, nitrogen: pH 9.5), but in the carbon dioxide atmosphere the pH dropped in the first two minutes from 9.2 to 6.9. After 12 minutes the pH was 6.6 and after 1 hour the pH was 6.5. After that, the pH remained constant.

[3] = Stability of pravastatin (lactone and impurity formation) in buffers of pH 7 to 11; conditions: buffers pH 7 to 11 (phosphate, citrate, borate); 1, 5, 13 and 28 days
Excerpt: The third observation is that a sufficient stabilization of the active substance is already obtained at a pH of at least 7.0, but a beneficially high stability is effected at a pH of at least 8.0. We have noticed that at a pH below 8 the formation of lactone has occurred and also the amount of other impurities has increased. The presence of humidity in the air and a carbon dioxide-rich atmosphere makes the negative effect of a low pH even stronger. This is illustrated by the following experiment: Pravastatin was dissolved in different buffers with the pH in a range between 7 and 11 (F=phosphate, C=citrate, B=borate). The occurrence of pravastatin in lactone form and the formation of different degradation products (impurities) were measured after 1, 5, 13 and 28 days.

- Value pH (1%) after 1 week on air atm ([1]; 1% aqueous solution, after 1 week in air atmosphere): 7.2
- Value pH (1%) after preparing ([1]; 1% aqueous solution, after preparing): 7.4
- Value pH (5%) after 1 week on air atm ([1]; 5% aqueous solution, after 1 week in air atmosphere): 7.6
- Value pH (5%) after preparing ([1]; 5% aqueous solution, after preparing): 7.7
- pH in carbon dioxide atmosphere after 12 minutes ([2]; carbon dioxide atmosphere, 12 minutes): 6.6
- pH in carbon dioxide atmosphere after 1 hour ([2]; carbon dioxide atmosphere, 1 hour, constant afterwards): 6.5
- pH in carbon dioxide atmosphere after two minutes ([2]; carbon dioxide atmosphere, first two minutes): 6.9
- pH at start in carbon dioxide atmosphere ([2]; carbon dioxide atmosphere, starting value): 9.2
- pH in normal air ([2]; crystals from solution adjusted to pH 10 with NaOH, normal air, remained the same during 24 hours): 9.2
- pH in nitrogen atmosphere ([2]; nitrogen atmosphere, remained the same during 24 hours): 9.5
- pH at which formation of lactone occurred and other impurities increased [3]: below 8
SMILES: CC[C@H](C)C(=O)O[C@H]1C[C@H](O)C=C2C=C[C@H](C)[C@H](CC[C@@H](O)C[C@@H](O)CC(=O)O)[C@H]21 [Pravastatin Sodium]
